The test system of series [1] is CYP3A. To be noted: male, human, in vivo. As to the method:
The subject was not receiving any medication. […] Urine samples were obtained at a timed period (0-2, 2-4, 4-6, 6-8, 8-10, and 10-12) and the volume of the urine samples was noted. The recommended frequency of blood sampling is at least one time during a 2-hour urine collection. Urinary concentrations of cortisol and 6β-hydroxycortisol and plasma concentrations of cortisol were determined by HPLC and GC-MS, respectively. “The endogenous metabolic clearance (CLm(6β)-endo)” was calculated by Equation 4.
c) The fractional metabolic clearance for the 6β-hydroxylation of endogenous cortisol (CLm(6β)) is expressed as the amount of urinary excreted 6β-hydroxycortisol (X(6β)) divided by the area under the concentration-time curve of cortisol (AUC(F)); that is, CLm(6β)=X(6β)/AUC(F).

For series [2], the system named is CYP3A. The following applies: pretreatment with 500-mg of clarithromycin twice a day for 7 days; cited from earlier work.

For `CC[C@H]1OC(=O)[C@H](C)[C@@H](O[C@H]2C[C@@](C)(OC)[C@@H](O)[C@H](C)O2)[C@H](C)[C@@H](O[C@@H]2O[C@H](C)C[C@H](N(C)C)[C@H]2O)[C@](C)(OC)C[C@@H](C)C(=O)[C@H](C)[C@@H](O)[C@]1(C)O` [clarithromycin], the “variation of CLm(6β)-endo values during treatment” value in series [1] was determined as 1.2 fold. For the same compound, in series [2], the midazolam sleep time result is reported as “doubling” and the “reduction in the systemic clearance of midazolam” value is 64%.

The record behind these values is US6905839B2, “In vivo phenotyping for human cytochrome P450 3A activity” (priority 2002, dated 2005).
